Holding throughout (type): in vivo
Experiment [1] deals with human acute lymphoblastic leukemia cells (RS4:11). Nature of the experiment: RS4:11 Acute Lymphoblastic Leukemia xenograft efficacy in SCID mice. How it is done: The efficacy evaluation of the vehicle (phosphate buffer saline), Compound A (formulated in 30% HP-β-CD, pH 4), Compound 1 in PBS (equivalent to 10 mg/kg Compound A) and Compound 2 in PBS (equivalent to 10 mg/kg and 30 mg/kg Compound A) is shown.
The efficacy evaluation of the vehicle (phosphate buffer saline, PBS), a formulation of Compound A in 30% HP-β-CD, Compound 1 in PBS (equivalent to 20 mg/kg Compound A) and Compound 2 in PBS (equivalent to 20 mg/kg Compound A) and is shown.
Preparation of Compounds 1 and 2 PBS formulations for dosing RS4:11 efficacy study: The appropriate amounts of Compound 1 and 2 were weighed into a volumetric flask. 10 mL Dulbecc's Phosphate Buffered Saline (PBS) was added and formulations were then stirred until the compound dissolved entirely.
The appropriate amount of Compound A was weighed into a 10 mL volumetric flask. 8 mL of 30% w/v HP-β-CD vehicle was then added and the formulation stirred. 1M MSA was added dropwise until the pH was reduced to about 2. The formulation was then stirred until the compound dissolved entirely. The pH was measured and adjusted to pH 4, dropwise using 1M MSA or NaOH. The formulation was then stirred to make sure a clear solution (with possible haze) was obtained. The volume was then made up to 10 mL with 30% w/v HP-β-CD vehicle and stirred. The final pH was measured and recorded and the formulation filtered through a […] filter prior to administration. Other formulation strengths were prepared by diluting the Compound A in 30% w/v HP-β-CD with an appropriate amount of 30% w/v HP-β-CD vehicle.
Efficacy of Compounds 1 and 2 in RS4:11 Xenograft Model: 5×10^6 RS4; 11 cells in a total volume of 100 μL were inoculated subcutaneously at the mouse right flank. […]
(§1) On specific day, for each treated group, calculate Inhibition value by formula: Inhibition %=(CG-TG)*100/(CG-1), in which “CG” means the geometric mean of rtv of the control group and “TG” means the Geometric Mean of Relative Tumor Volume (rtv) of the treated group. “CG” should use the corresponding control group of the treated group when calculated. […]

Experiment [2] relates to Cleaved poly ADP ribose polymerase (PARP). Nature of the experiment: Cleaved PARP response (cell death) after a single dose. To be noted: Compound A in HP-β-CD formulation. On the procedure: Cleaved poly ADP ribose polymerase (PARP) response was used as a measure of cell death.
Additionally, cell death (apoptosis) was measured using cleaved PARP (FIG. 4).

The subject of experiment [3] is SuDHL-4. Briefly: SuDHL-4 xenograft model in SCID mice, alone and with rituximab. On the procedure:
Formulations of Compound 1 for SuDHL-4 efficacy study: Compound 1 was formulated in a pH 5 citrate/phosphate buffer diluted 1:10 with 5% glucose and containing 1% w/v Kolliphor HS-15, at concentrations up to 105 mg/mL of Compound 1 (equivalent to up to 30 mg/mL of Compound A concentration).
Formulations of Compound 2 for dosing in SuDHL-4 efficacy study: Compound 2 was formulated in a pH 4 citrate/phosphate buffer diluted 1:10 with 5% Glucose and containing 1% w/v Kolliphor HS-15, at concentrations up to 121 mg/mL of Compound 2 (equivalent of up to 30 mg/mL of Compound A concentration).
Compounds 1 and 2 enhance inhibition of tumor growth by rituximab in SuDHL-4 Xenograft Model in SCID Mice: The SuDHL-4 xenograft model was used to test the ability of Compounds 1 and 2 to enhance the activity of rituximab in inhibiting tumor growth. […]
Tumor sizes were measured 2 times a week and calculated as: Tumor Volume=(A×B^2)/2 where A and B are the tumor length and width (in mm), respectively.
as §1

Turning to `CN(CCO)CC[C@H](CCSc1ccccc1)CNc1ccc(S(=O)(=O)NC(=O)c2ccc(N3CCC([C@@H](O)c4ccccc4-c4ccc(Cl)cc4)CC3)cc2)cc1S(=O)(=O)C(F)(F)F` [Compound A, reference compound], in experiment [1] (Compound A 5 mg/kg), the “% Inhibition Day (47)” value is reported as above 100% and the “% Regression Day(47)” value is recorded as 90%. This compound also registered a regression in experiment [1] (Compound A HP-β-CD 10 mg/kg IV once) of 90%. Besides, in experiment [2], the “time of cleaved PARP induction post treatment” value was “immediately post treatment 1 and 3 hr”.

As for rituximab [reference compound], in experiment [3] (rituximab 10 mg/kg alone), the “T − C” value was above 16 days. The “% Inhibition (TIC) Day(41)” value in experiment [3] (rituximab 10 mg/kg i.p. once a week for 5 weeks) was 75.27%.
